{
  "source": "paper PMC3082566",
  "about": "“PTB Domain-Directed Substrate Targeting in a Tyrosine Kinase from the Unicellular Choanoflagellate Monosiga brevicollis” (PLoS ONE, 2011)",
  "key": {"HMTK1 [1]": {"tested_on": "HMTK1", "assay": "Binding of purified HMTK1 to immobilized pYEEI peptide", "set-up": "species or system Monosiga brevicollis", "conditions": "20 µg protein, 30 µl immobilized peptide, 1 hour at 4°C; Coomassie; Fig. 3A", "method": "(§1) The PTB ligand-containing peptide, Phe-containing PTB control, and pYEEI peptide (EPQpYEEIG) were linked to Affi-Gel 15 resin (Bio-Rad) following the manufacturer's protocols. Purified HMTK1 or the isolated PTB domain were incubated for 1 hour at 4°C with the immobilized peptides. After binding, the beads were washed 4 times with 1 ml of binding buffer (50 mM Tris-HCl pH 7.5, 5 mM EDTA, 100 mM NaCl, 0.1% Triton X-100, 1 mM DTT, 0.5 mM Na3VO4). Bound proteins were eluted with SDS-PAGE loading buffer, separated by 10% SDS-PAGE, and visualized either by Coomassie blue staining or by Western blotting.\n(§2) Figure 3 Binding reactions with pYEEI-containing peptide. (A). Purified HMTK1 or c-Src (20 µg) were mixed with 30 µl of immobilized pYEEI peptide (pY) or control resin (C) in total volumes of 175 µl for 1 hour at 4°C. After binding, the resins were washed 4 times with 200 µl of binding buffer. Bound proteins were eluted with SDS-PAGE sample buffer and analyzed by gel electrophoresis with Coomassie blue staining. (B). The isolated HMTK1 PTB domain (8 µg) was incubated with 50 µl of immobilized pYEEI peptide (pY) or control resin (C) in total volumes of 400 µl for 1 hour at 4°C. After washing, bound proteins were eluted with SDS-PAGE sample buffer and analyzed by Western blotting with anti-GST antibody. (C). […] After washing, bound proteins were analyzed by anti-FLAG Western blotting. […]"}, "c-Src": {"tested_on": "c-Src", "assay": "Binding of purified Src to immobilized pYEEI peptide", "conditions": "positive control; 20 µg protein, 30 µl immobilized peptide, 1 hour at 4°C; Coomassie; Fig. 3A", "method": "as §1, §2"}, "[2]": {"tested_on": "isolated HMTK1 PTB domain", "assay": "Pulldown of isolated HMTK1 PTB domain with immobilized pYEEI peptide", "type": "binding, Monosiga brevicollis", "conditions": "8 µg PTB domain, 50 µl immobilized peptide, 1 hour at 4°C; anti-GST Western; Fig. 3B", "method": "HMTK1 was expressed in Spodoptera frugiperda (Sf9) insect cells using the Bac-to-Bac system (Invitrogen). Sf9 cells (800 ml) were infected with HMTK1 baculovirus and harvested after three days. Cells were lysed in a French pressure cell, and His-tagged HMTK1 was purified using nickel-nitrilotriacetic acid resin (Qiagen), as described previously. Peak fractions were pooled and concentrated in an Amicon Ultrafiltration device (molecular weight cutoff: 30,000 daltons). The purified protein was stored in 40% glycerol at −20°C. The isolated PTB domain of HMTK1 was produced as a fusion with glutathione S-transferase (GST). E. coli cells (1 liter) expressing the GST fusion protein were lysed in a French pressure cell, and the GST-PTB protein was purified by chromatography on a glutathione-agarose column (Molecular Probes).\nThe PTB ligand-containing peptide, Phe-containing PTB control, and pYEEI peptide (EPQpYEEIG) were linked to Affi-Gel 15 resin (Bio-Rad) following the manufacturer's protocols. […]\n(§3) Figure 3 Binding reactions with pYEEI-containing peptide. […] Bound proteins were eluted with SDS-PAGE sample buffer and analyzed by gel electrophoresis with Coomassie blue staining. […] After washing, bound proteins were eluted with SDS-PAGE sample buffer and analyzed by Western blotting with anti-GST antibody. […] After washing, bound proteins were analyzed by anti-FLAG Western blotting. […]"}, "[3]": {"tested_on": "FLAG-tagged wild-type HMTK1", "assay": "Pulldown of FLAG-tagged wild-type HMTK1 from SYF cell lysates with immobilized peptides", "type": "binding, Monosiga brevicollis", "conditions": "immobilized peptide; anti-FLAG Western; Fig. 3C", "method": "(§4) For expression in insect cells, HMTK1 DNA (encoding residues 341–761) was cloned into the EcoRI site of pFastbac-Hta (Invitrogen). FLAG-tagged HMTK1 was expressed in mammalian cells by subcloning into the BglII and BamHI sites of p3XFLAG-CMV (Sigma). The ΔPTB version of this construct was prepared by PCR amplification and subsequent recloning into the BamHI and EcoRI sites of p3XFLAG-CMV. Site-directed mutagenesis of FLAG-HMTK1 was carried out using the QuikChange kit (Stratagene). To express the isolated third PTB domain (residues 341–474) in bacterial cells, this PCR fragment was cloned into the EcoRI site of plasmid pGEX-4T-1 (GE Healthcare). All constructs were confirmed by DNA sequencing.\n(§5) The PTB ligand-containing peptide, Phe-containing PTB control, and pYEEI peptide (EPQpYEEIG) were linked to Affi-Gel 15 resin (Bio-Rad) following the manufacturer's protocols. Purified HMTK1 or the isolated PTB domain were incubated for 1 hour at 4°C with the immobilized peptides. […]\nas §3"}, "FLAG-tagged ΔPTB HMTK1": {"tested_on": "FLAG-tagged ΔPTB HMTK1", "assay": "Pulldown of FLAG-tagged ΔPTB HMTK1 from SYF cell lysates with immobilized pYEEI", "type": "binding, Monosiga brevicollis", "conditions": "immobilized peptide; anti-FLAG Western; Fig. 3C", "method": "as §4, §5, §3"}, "HMTK1 [4]": {"tested_on": "HMTK1", "assay": "Binding of purified HMTK1 to immobilized PTB ligand peptides", "set-up": "species or system Monosiga brevicollis", "conditions": "6.6 µg HMTK1; peptide on Affi-Gel resin; 1 hour at 4°C; anti-His6 Western; Fig. 5A", "method": "as §1\nFigure 5 Substrate targeting by PTB ligand. (A) Purified HMTK1 (6.6 µg) was incubated with PTB ligand-containing substrate ([…]pYATLG), PTB control substrate ([…]), pYEEI peptide, or control resin in final volumes of 60 µl. After washing, bound proteins were eluted with SDS-PAGE sample buffer and analyzed by Western blotting with anti-His6-tag antibody. (B) The kinase activity of HMTK1 (300 nM) toward the PTB ligand-containing substrate or PTB control substrate (shown schematically) was determined using the phosphocellulose paper assay. The reaction contained 20 mM Tris-HCl (pH 7.4), 10 mM MgCl2, 0.2 mM ATP, 30 µM peptide, and [γ-^32P]-ATP. […] Incorporation of ^32P into the peptides was determined by scintillation counting."}, "HMTK1 [5]": {"tested_on": "HMTK1", "assay": "Substrate targeting: phosphorylation of PTB ligand-containing substrate and control by HMTK1", "type": "biochemical, Monosiga brevicollis", "conditions": "30 µM peptide, 300 nM HMTK1, 20 mM Tris-HCl pH 7.4, 10 mM MgCl2, 0.2 mM ATP, Fig. 5B", "method": "Kinase assays were performed by two methods. Initial activity measurements were performed by the phosphocellulose paper binding assay. Reaction mixtures contained 20 mM Tris-HCl (pH 7.4), 10 mM MgCl2, 0.2 mM ATP, [γ-^32P]-ATP (30–50 cpm/pmol), and varying amounts of HMTK1 and peptide substrates. All peptide substrates were purified by high pressure liquid chromatography and characterized by mass spectrometry prior to use. The following substrates were used: c-Src peptide, […]; MbSTAT peptide, […]; RTKB2 peptide 1, […]; RTKB2 peptide 2, […]; SH2 binding substrates (varying linker lengths), […]pYEEIG, […]pYEEIG, and […]pYEEIG; SH2 control substrate, […]. […] Kinetic constants were determined by nonlinear fitting to the [substrate] vs. velocity curves using GraphPad Prism 4.\nFigure 5 Substrate targeting by PTB ligand. […] After washing, bound proteins were eluted with SDS-PAGE sample buffer and analyzed by Western blotting with anti-His6-tag antibody. (B) The kinase activity of HMTK1 (300 nM) toward the PTB ligand-containing substrate or PTB control substrate (shown schematically) was determined using the phosphocellulose paper assay. […] Incorporation of ^32P into the peptides was determined by scintillation counting."}, "HMTK1 [6]": {"tested_on": "HMTK1", "assay": "Steady-state kinetics, continuous spectrophotometric assay", "type": "biochemical, Monosiga brevicollis", "conditions": "HMTK1 0.3–0.5 µM, peptide 0–700 µM, 100 mM Tris pH 7.4, 10 mM MgCl2, 2 mM ATP, 30°C", "method": "Kinase assays were performed by two methods. Initial activity measurements were performed by the phosphocellulose paper binding assay. Reaction mixtures contained 20 mM Tris-HCl (pH 7.4), 10 mM MgCl2, 0.2 mM ATP, [γ-^32P]-ATP (30–50 cpm/pmol), and varying amounts of HMTK1 and peptide substrates. All peptide substrates were purified by high pressure liquid chromatography and characterized by mass spectrometry prior to use. The following substrates were used: c-Src peptide, […]; MbSTAT peptide, […]; RTKB2 peptide 1, […]; RTKB2 peptide 2, […]; SH2 binding substrates (varying linker lengths), […]pYEEIG, […]pYEEIG, and […]pYEEIG; SH2 control substrate, […]. Initial rate kinetic measurements on the PTB ligand-containing substrate ([…]pYATLG) and on the Phe-containing PTB control ([…]) were carried out using a continuous spectrophotometric assay. Reactions were performed at 30°C in a final volume of 50 µl. The reactions contained 100 mM Tris pH 7.4, 10 mM MgCl2, 2 mM ATP, 1.5 mM phosphoenolpyruvate, 90 units/ml of pyruvate kinase, 109 units/ml of lactate dehydrogenase, and 1.2 mg/ml of NADH. For determination of Km values, the enzyme concentrations were 0.3–0.5 µM and the peptide concentrations ranged from 0–700 µM. Kinetic constants were determined by nonlinear fitting to the [substrate] vs. velocity curves using GraphPad Prism 4."}, "Hck": {"tested_on": "Hck", "conditions": "Src family kinase Hck with the same peptide; ref [24]; cited from earlier work", "description": "We selected a pair of peptides for further study. […] We synthesized an individual peptide in which the sequence NFTNPVpYATG was connected to a tyrosine kinase substrate sequence."}, "HMTK1 PTB domain": {"tested_on": "HMTK1 PTB domain", "assay": "Peptide array (PepSpots) probed with biotinylated HMTK1 PTB domain", "type": "binding, Monosiga brevicollis", "conditions": "10 µg/ml PTB, 5% BSA, 20 mM Hepes pH 7.3, 30 min at room temperature; streptavidin-HRP chemiluminescence; Fig. 4A", "description": "The PTB domain of HMTK1 was cloned as an EcoR1 fragment into a modified pGEX (GE Healthcare Life Sciences) bicistronic vector pGEX-4T-BiotinN to express the gene of interest and the biotin ligase (BirA) in the same cell ([19]; Chan et al., in press). […] The resulting pGEX-BiotinN-PTB construct was transformed into E. coli BL21(DE3) cells for expression. GST-biotin-PTB protein was purified using glutathione-agarose and desalted using a PD-10 (GE Healthcare) gel filtration column.\nN-terminally acetylated 11-residue peptides were synthesized using standard chemistry in situ (PepSpots) on cellulose based matrix (Jerini Biotools). To ensure protein accessibility, each peptide contained a 4-residue spacer consisting of a glycine and 3 β-alanines. All peptides were immobilized via their C-termini. […] Prior to usage, peptide array membranes were washed in binding buffer (20 mM Hepes pH 7.3, 137 mM NaCl, 5 mM KCl, 0.05% Tween-20) and blocked with 5% filtered bovine serum albumin in the same buffer. […] After washing in binding buffer (3×10 min), bound PTB was detected using enhanced chemiluminescence and standard X-ray film.\nFigure 4 Peptide array experiment. […] Bound PTB domain was detected using streptavidin-HRP and enhanced chemiluminescence. […]"}, "SYF cells": {"tested_on": "SYF cells", "assay": "Anti-phosphotyrosine Western blotting of SYF cell lysates", "type": "cell-based, mammalian", "conditions": "0.1 or 1.0 mM sodium orthovanadate, 20 minutes, 37°C; Fig. S4B", "protocol": "SYF cells were cultured in Dulbecco's modified Eagle's medium (Mediatech, Inc.) supplemented with 10% fetal bovine serum (Sigma) and 1000 UI/ml penicillin, 1000 UI/ml streptomycin and 25 ng/ml amphotericin B (Mediatech, Inc.). SYF cells (2.25×10^6) were plated in 15-cm diameter dishes and transfected after 24 hours using 5–15 µg of DNA and 2 µl TransIT per µg DNA. After 48 hours, the cells were harvested, washed twice with PBS and lysed using radioimmune precipitation assay (RIPA) buffer (50 mM Tris-HCl pH 7.4, 150 mM NaCl, 5 mM EDTA, 1% sodium deoxycholate, 1% Nonidet P-40) supplemented with the protease inhibitors leupeptin (10 µg/ml), aprotinin (10 µg/ml), PMSF (200 µM) and the phosphatase inhibitors Na3VO4 (0.2 mM) and NaF (10 mM). Lysates (50 µg) were separated by 10% SDS-PAGE, transferred to PVDF membranes and probed with the appropriate antibodies. For immunoprecipitation, cell lysates (100 µg) were incubated overnight at 4°C with 40 µl of EZview red anti-Flag M2 affinity gel pre-equilibrated with RIPA buffer in a total volume of 1 ml. The immunocomplexes were washed 4 times, eluted from the beads by adding Laemmli buffer, separated by SDS-PAGE, transferred to PVDF membranes and probed with the appropriate antibodies.\nWhole cell lysates were analyzed by SDS-PAGE and Western blotting with anti-pTyr, anti-FLAG, or anti-tubulin antibodies, as indicated. […]"}},
  "note": "“Also recorded” adds a separate entry of the source.",
  "data": [
    {"substance": "EPQpYEEIG [Src SH2 ligand peptide linked to Affi-Gel 15 resin]", "values": [
      {"measurement": "binding to purified HMTK1", "setting": "HMTK1 [1]", "value": "bound"},
      {"measurement": "binding to purified Src", "setting": "c-Src", "value": "bound"},
      {"measurement": "binding to isolated HMTK1 PTB domain", "setting": "[2]", "value": "pYEEI-binding activity was localized to the PTB domain; also recorded: bound"},
      {"measurement": "binding to wild-type HMTK1 (SYF lysate)", "setting": "[3]", "value": "bound"},
      {"measurement": "binding to ΔPTB HMTK1 (SYF lysate)", "setting": "FLAG-tagged ΔPTB HMTK1", "value": "did not"}
    ]},
    {"substance": "KKAEEEIYGEFEANFTNPVpYATLG [pTyr peptide]", "values": [
      {"measurement": "binding to purified HMTK1", "setting": "HMTK1 [4]", "value": "bound"},
      {"measurement": "phosphorylation by HMTK1 compared to Phe control", "setting": "HMTK1 [5]; listed as pTyr-containing peptide", "value": "preferentially phosphorylated"},
      {"measurement": "phosphorylation by HMTK1 compared to Phe control", "setting": "HMTK1 [5]; listed as synthetic peptide containing this sequence (with pTyr)", "value": "phosphorylated more efficiently"},
      {"measurement": "Vmax", "setting": "HMTK1 [6]", "value": 4.9, "unit": "µmol/min/mg enzyme"},
      {"measurement": "Km", "setting": "HMTK1 [6]; nonlinear fitting", "value": 33, "unit": "µM"},
      {"measurement": "Vmax (Hck)", "setting": "Hck", "value": 3.0, "unit": "µmol/min/mg enzyme"}
    ]},
    {"substance": "TNFTNPVYATLG", "values": [
      {"measurement": "binding of biotinylated PTB domain to array peptides, phosphorylated vs unphosphorylated", "setting": "HMTK1 PTB domain", "value": "bound much more strongly in the phosphorylated state"}
    ]},
    {"substance": "sodium orthovanadate", "values": [
      {"measurement": "overall phosphorylation in SYF cells", "setting": "SYF cells", "value": "enhanced overall phosphorylation"}
    ]}
  ]
}
